We go through six cell lines from the supplement of paper PMC10307832.

What all share (assay): relative viability (nuclei count vs DMSO), 5 days (fraction); higher = more cells survive
Compound in one assay: CC1(C)CCC(CN2CCN(c3ccc(C(=O)NS(=O)(=O)c4ccc(NCC5CCOCC5)c([N+](=O)[O-])c4)c(Oc4cnc5[nH]ccc5c4)c3)CC2)=C(c2ccc(Cl)cc2)C1 [Venetoclax]
In short, it runs like this:
(§1)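 Lung cancer cell lines were seeded into 1536-well plates, kept overnight at 37 °C and pinned with five library-drug doses (not always all listed) spaced by √10. After 5 days, nuclei were Hoechst-stained, imaged at 4× and counted with MetaXpress. Viability is treated-well nuclei over vehicle-well nuclei, taken as a median across plates. Plates needed control CV below 25% and at least one doubling.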

Compound in another assay: Cn1cnc2c(F)c(Nc3ccc(Br)cc3Cl)c(C(=O)NOCCO)cc21 [Selumetinib]
In short, it runs like this:
as §1

Compound in the assay “Selumetinib + Navitoclax”: Cn1cnc2c(F)c(Nc3ccc(Br)cc3Cl)c(C(=O)NOCCO)cc21 [Selumetinib] + CC1(C)CCC(c2ccc(Cl)cc2)=C(CN2CCN(c3ccc(C(=O)NS(=O)(=O)c4ccc(N[C@H](CCN5CCOCC5)CSc5ccccc5)c(S(=O)(=O)C(F)(F)F)c4)cc3)CC2)C1 [Navitoclax] (partner 0.5 µM)
In short, it runs like this:
(§2)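 Lung cancer cell lines in 1536-well plates got either a single drug or a fixed anchor-drug dose together with five library-drug doses (not always all listed) in √10 steps, by pin tool, on the day after seeding. Nuclei were counted after 5 days, and relative viability is the treated-to-vehicle ratio of nuclei counts. Values are medians of duplicate plates.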

Compound in the assay “Venetoclax + Trametinib”: CC1(C)CCC(CN2CCN(c3ccc(C(=O)NS(=O)(=O)c4ccc(NCC5CCOCC5)c([N+](=O)[O-])c4)c(Oc4cnc5[nH]ccc5c4)c3)CC2)=C(c2ccc(Cl)cc2)C1 [Venetoclax] + CC(=O)Nc1cccc(-n2c(=O)n(C3CC3)c(=O)c3c(Nc4ccc(I)cc4F)n(C)c(=O)c(C)c32)c1 [Trametinib] (partner 0.02 µM)
In short, it runs like this:
as §2

Regarding NCI-H460, the relative viability in the assay with Venetoclax (0.01 µM) was 0.98; with Venetoclax (0.03162 µM), 0.965; with Venetoclax (0.1 µM), 0.941; with Venetoclax (0.3162 µM), 0.989; with Venetoclax (1 µM), 0.923; with Selumetinib (0.02 µM) it was 0.963. For the same cell line, the relative viability with Selumetinib (0.06325 µM) is 0.801; in the assay with Selumetinib (0.2 µM) it was 0.823; in the assay with Selumetinib (0.6325 µM), 0.545; with Selumetinib + Navitoclax (first compound 0.02 µM), 1.18; with Selumetinib + Navitoclax (first compound 0.06325 µM) it was 0.916; in the assay with Selumetinib + Navitoclax (first compound 0.2 µM) it was 0.86. For the same cell line, the relative viability with Selumetinib + Navitoclax (first compound 0.6325 µM) worked out at 0.578; with Venetoclax + Trametinib (first compound 0.01 µM) it was 0.171; with Venetoclax + Trametinib (first compound 0.03162 µM), 0.229; with Venetoclax + Trametinib (first compound 0.1 µM) it was 0.131; with Venetoclax + Trametinib (first compound 0.3162 µM), 0.153; in the assay with Venetoclax + Trametinib (first compound 1 µM), 0.131.

For the cell line NCI-H2170, the relative viability with Venetoclax (0.01 µM) turned out to be 0.863; in the assay with Venetoclax (0.03162 µM), 0.944; with Venetoclax (0.1 µM), 0.904; with Venetoclax (0.3162 µM) it was 0.91; with Venetoclax (1 µM), 0.877; with Selumetinib (0.02 µM), 0.982. The relative viability in the assay with Selumetinib (0.06325 µM) was found to be 0.97; with Selumetinib (0.2 µM) it was 0.896; in the assay with Selumetinib (0.6325 µM), 0.937; with Selumetinib + Navitoclax (first compound 0.02 µM), 0.581; in the assay with Selumetinib + Navitoclax (first compound 0.06325 µM), 0.561; in the assay with Selumetinib + Navitoclax (first compound 0.2 µM), 0.514. Besides, the relative viability with Selumetinib + Navitoclax (first compound 0.6325 µM) is 0.464; in the assay with Venetoclax + Trametinib (first compound 0.01 µM), 0.859; with Venetoclax + Trametinib (first compound 0.03162 µM) it was 0.97; with Venetoclax + Trametinib (first compound 0.1 µM) it was 0.841; with Venetoclax + Trametinib (first compound 0.3162 µM), 0.812; in the assay with Venetoclax + Trametinib (first compound 1 µM), 0.87.

On to NCI-H1395, for which the relative viability was 1.01 with Venetoclax (0.01 µM); 0.99 with Venetoclax (0.03162 µM); 0.769 with Venetoclax (0.1 µM); 1.11 with Venetoclax (0.3162 µM); 0.922 with Venetoclax (1 µM); 0.984 with Selumetinib (0.02 µM). Besides, the relative viability with Selumetinib (0.06325 µM) turned out to be 0.85; with Selumetinib (0.2 µM), 0.892; in the assay with Selumetinib (0.6325 µM), 0.845; with Selumetinib + Navitoclax (first compound 0.02 µM), 1.08; with Selumetinib + Navitoclax (first compound 0.06325 µM) it was 1.13; in the assay with Selumetinib + Navitoclax (first compound 0.2 µM), 1.22. Moreover, the relative viability with Selumetinib + Navitoclax (first compound 0.6325 µM) amounted to 1.28; in the assay with Venetoclax + Trametinib (first compound 0.01 µM), 1.05; in the assay with Venetoclax + Trametinib (first compound 0.03162 µM), 0.944; in the assay with Venetoclax + Trametinib (first compound 0.1 µM), 1.02; with Venetoclax + Trametinib (first compound 0.3162 µM), 1.06; in the assay with Venetoclax + Trametinib (first compound 1 µM) it was 1.05.

Regarding LC-2-ad, the relative viability with Venetoclax (0.01 µM) was 0.942; in the assay with Venetoclax (0.03162 µM), 1.01; with Venetoclax (0.1 µM) it was 0.978; with Venetoclax (0.3162 µM), 1; with Venetoclax (1 µM) it was 0.964; in the assay with Selumetinib (0.02 µM), 0.948. Besides, the relative viability in the assay with Selumetinib (0.06325 µM) was 0.896; with Selumetinib (0.2 µM), 0.885; in the assay with Selumetinib (0.6325 µM), 0.899; in the assay with Selumetinib + Navitoclax (first compound 0.02 µM) it was 0.4; in the assay with Selumetinib + Navitoclax (first compound 0.06325 µM), 0.359; with Selumetinib + Navitoclax (first compound 0.2 µM) it was 0.442. The relative viability amounted to 0.46 in the assay with Selumetinib + Navitoclax (first compound 0.6325 µM); 0.927 with Venetoclax + Trametinib (first compound 0.01 µM); 0.84 with Venetoclax + Trametinib (first compound 0.03162 µM); 0.898 with Venetoclax + Trametinib (first compound 0.1 µM); 0.874 in the assay with Venetoclax + Trametinib (first compound 0.3162 µM); 0.845 with Venetoclax + Trametinib (first compound 1 µM).

With PC-3 [JPC-3], the relative viability stood at 0.995 in the assay with Venetoclax (0.01 µM); 1.07 in the assay with Venetoclax (0.03162 µM); 1.06 with Venetoclax (0.1 µM); 1.04 in the assay with Venetoclax (0.3162 µM); 0.917 with Venetoclax (1 µM); 1.01 with Selumetinib (0.02 µM). For the same cell line, the relative viability turned out to be 1 with Selumetinib (0.06325 µM); 0.869 in the assay with Selumetinib (0.2 µM); 0.787 with Selumetinib (0.6325 µM); 0.824 in the assay with Selumetinib + Navitoclax (first compound 0.02 µM); 0.744 with Selumetinib + Navitoclax (first compound 0.06325 µM); 0.721 with Selumetinib + Navitoclax (first compound 0.2 µM). For the same cell line, the relative viability with Selumetinib + Navitoclax (first compound 0.6325 µM) was determined as 0.651; with Venetoclax + Trametinib (first compound 0.01 µM), 0.656; in the assay with Venetoclax + Trametinib (first compound 0.03162 µM) it was 0.685; in the assay with Venetoclax + Trametinib (first compound 0.1 µM) it was 0.678; in the assay with Venetoclax + Trametinib (first compound 0.3162 µM), 0.683; in the assay with Venetoclax + Trametinib (first compound 1 µM), 0.666.

CAL-12T: the relative viability in the assay with Venetoclax (0.01 µM) came to 0.944; in the assay with Venetoclax (0.03162 µM), 1.05; with Venetoclax (0.1 µM), 0.923; with Venetoclax (0.3162 µM) it was 0.956; with Venetoclax (1 µM), 0.886; in the assay with Selumetinib (0.02 µM), 0.88. Further, the relative viability with Selumetinib (0.06325 µM) was determined as 0.794; with Selumetinib (0.2 µM) it was 0.781; in the assay with Selumetinib (0.6325 µM), 0.737; with Selumetinib + Navitoclax (first compound 0.02 µM) it was 1.28; with Selumetinib + Navitoclax (first compound 0.06325 µM), 1.36; in the assay with Selumetinib + Navitoclax (first compound 0.2 µM), 0.986. In addition, the relative viability with Selumetinib + Navitoclax (first compound 0.6325 µM) is 0.921; with Venetoclax + Trametinib (first compound 0.01 µM), 0.24; with Venetoclax + Trametinib (first compound 0.03162 µM) it was 0.385; with Venetoclax + Trametinib (first compound 0.1 µM), 0.357; with Venetoclax + Trametinib (first compound 0.3162 µM), 0.379; with Venetoclax + Trametinib (first compound 1 µM), 0.278.
